Here are results for 8 molecules from PubChem BioAssay AID1259408 (Genetic Toxicology Data Bank (GENE-TOX), 2018).

SMILES strings stand for the structures. The source made the active and inactive calls. The rule behind the calls is not given here.

This series concerns GENE-TOX genotoxicity assays, various organisms and cells. Description: GENE-TOX mutagenicity studies. Conditions: for call: Assay Type: In vivo carcinogenicity studies, Assay Code: CCG+.
Setting [1] is: Species/Cell Type: Escherichia coli polA (W3119 vs P3478), Assay Type: Rec-assay, DNA effects (bacterial DNA repair), Assay Code: RE1+, Evaluation Type: Evaluation A (Pre-1980).
Where [2] appears, read: Species/Cell Type: Fischer rat embryo (RLV/1706) cells, Assay Type: Cell transformation, viral enhanced, Assay Code: CTR+, Evaluation Type: Evaluation A (Pre-1980).
Setting [3] is: Species/Cell Type: Human lymphocytes, Assay Type: Sister-chromatid exchange (SCE) in vitro, Assay Code: SCL+D, Dose Response: With dose response, Evaluation Type: Evaluation B (Post-1980).
[4] abbreviates: Species/Cell Type: Human, Assay Type: Sister-chromatid exchange (SCE) in vitro, Assay Code: SC1+D, Dose Response: With dose response, Evaluation Type: Evaluation B (Post-1980).
Where [5] appears, read: Species/Cell Type: Nonhuman, Evaluation Type: Evaluation A (Pre-1980).

Take `C1OC1C1CO1` (centres undefined): the mutagenic call was “active; positive” (Species/Cell Type: Aspergillus nidulans, Assay Type: Forward gene mutation, Assay Code: ASF+, Evaluation Type: Evaluation A (Pre-1980)); “active; positive” (Species/Cell Type: Aspergillus nidulans, Assay Type: Mitotic recombination, Assay Code: ASG+, Evaluation Type: Evaluation A (Pre-1980)); “active; positive” (Species/Cell Type: Drosophila melanogaster, Assay Type: Sex-linked recessive lethal gene mutation, Assay Code: SRL+, Evaluation Type: Evaluation A (Pre-1980)); “active; positive” (Species/Cell Type: Drosophila melanogaster, Sex: Male, Assay Type: Heritable translocation test, chromosome aberrations, Assay Code: DHT+, Evaluation Type: Evaluation A (Pre-1980)); “active; positive” under setting [1]; “active; positive” under setting [2]. Further, the mutagenic call (Species/Cell Type: Glycine max (soybean), Assay Type: Gene mutation, Assay Code: GLM+, Evaluation Type: Evaluation A (Pre-1980)) was “active; positive”; the mutagenic call (Species/Cell Type: Hordeum vulgare (barley), Assay Type: Chromosome aberrations, Assay Code: HOC+, Evaluation Type: Evaluation A (Pre-1980)) is “active; positive”; the mutagenic call under setting [3] is “active; positive”; the mutagenic call under setting [4] was “active; positive”; the mutagenic call (Species/Cell Type: Mouse (BALB/c-3T3) cells, Assay Type: Cell transformation, Assay Code: CTB+D, Dose Response: With dose response, Evaluation Type: Evaluation A (Pre-1980)) was “active; positive”; the mutagenic call (Species/Cell Type: Neurospora crassa, Assay Type: Forward gene mutation, Assay Code: NEF+, Evaluation Type: Evaluation A (Pre-1980)) was “active; positive”. In addition, the mutagenic call runs as follows: (Species/Cell Type: Neurospora crassa, Assay Type: Reverse gene mutation, Assay Code: NER+, Evaluation Type: Evaluation A (Pre-1980)) “active; positive”; (Species/Cell Type: Nonhuman, Assay Type: Sister-chromatid exchange (SCE) in vitro, Assay Code: SC2+D, Dose Response: With dose response, Evaluation Type: Evaluation A (Pre-1980)) “active; positive”; (Species/Cell Type: Nonhuman, Assay Type: Sister-chromatid exchange (SCE) in vivo, Assay Code: SC3+D, Dose Response: With dose response, Evaluation Type: Evaluation B (Post-1980)) “active; positive”; (Species/Cell Type: Saccharomyces cerevisiae, Assay Type: Mitotic recombination or gene conversion, Assay Code: YEC+, Evaluation Type: Evaluation A (Pre-1980)) “active; positive”; (Species/Cell Type: Saccharomyces cerevisiae, Assay Type: Mitotic recombination or gene conversion, Assay Code: YEH+, Evaluation Type: Evaluation A (Pre-1980)) “active; positive”; (Species/Cell Type: Saccharomyces cerevisiae, Assay Type: Reverse gene mutation, Assay Code: YER+, Evaluation Type: Evaluation A (Pre-1980)) “active; positive”. In addition, the mutagenic call runs as follows: (Species/Cell Type: Salmonella typhimurium (one or more of the five standard strains: TA98, TA100, TA1535, TA1537, and TA1538), Assay Type: Histidine reverse gene mutation, Ames assay, Assay Code: SAL+, Evaluation Type: Evaluation A (Pre-1980)) “active; positive”; (Species/Cell Type: Salmonella typhimurium, Assay Type: Forward and reverse gene mutation, host-mediated assay, Assay Code: HMA+, Evaluation Type: Evaluation A (Pre-1980)) “active; positive”; (Species/Cell Type: Schizosaccharomyces pombe, Assay Type: Reverse gene mutation, Assay Code: YEZ+, Evaluation Type: Evaluation A (Pre-1980)) “active; positive”; (Species/Cell Type: Syrian hamster embryo (SHE) cells, Assay Type: Cell transformation, clonal assay, Assay Code: CTC+D, Dose Response: With dose response, Evaluation Type: Evaluation A (Pre-1980)) “active; positive”; (Species/Cell Type: Vicia faba, Assay Type: Chromosome aberrations, Assay Code: VIC+D, Dose Response: With dose response, Evaluation Type: Evaluation A (Pre-1980)) “active; positive”. Besides, the call under setting [5] was “active; positive”.

Take `CCCCN(CCC)N=O`: the mutagenic call (Species/Cell Type: Salmonella typhimurium (one or more of the five standard strains: TA98, TA100, TA1535, TA1537, and TA1538), Assay Type: Histidine reverse gene mutation, Ames assay, Assay Code: SAL+*, Activation: With metabolic activation, Evaluation Type: Evaluation A (Pre-1980)) is “active; positive”.

As to `CC/C(=C(/CC)c1ccc(O)cc1)c1ccc(O)cc1`, the mutagenic call is “no conclusion” (Species/Cell Type: Escherichia coli polA (W3119 vs P3478), Assay Type: Rec-assay, DNA effects (bacterial DNA repair), Assay Code: RE1T, Evaluation Type: Evaluation A (Pre-1980)); “active; positive” under setting [2]; “no conclusion” (Species/Cell Type: Human diploid fibroblasts, Assay Type: Unscheduled DNA synthesis (UDS) in vitro, DNA effects, Assay Code: UDHT, Evaluation Type: Evaluation A (Pre-1980)); “active; positive” under setting [3]; “active; positive” under setting [4]; “no conclusion” (Species/Cell Type: Human, Sex: Male, Assay Type: Sperm morphology, Assay Code: SPHT, Evaluation Type: Evaluation A (Pre-1980)). The mutagenic call reads like this: (Species/Cell Type: Mammalian polychromatic erythrocytes, Assay Type: Micronucleus test, chromosome aberrations, Assay Code: MNT+, Evaluation Type: Evaluation A (Pre-1980)) “active; positive”; (Species/Cell Type: Mouse (BALB/c-3T3) cells, Assay Type: Cell transformation, Assay Code: CTB-, Evaluation Type: Evaluation A (Pre-1980)) “inactive; negative”; (Species/Cell Type: Mouse lymphoma (L5178Y) cells, Assay Type: Forward gene mutation at the thymidine kinase (TK) locus, chromosome aberrations, Assay Code: L51+, Evaluation Type: Evaluation A (Pre-1980)) “active; positive”; (Species/Cell Type: Mouse, Sex: Male, Assay Type: Sperm morphology, Assay Code: SPIT, Evaluation Type: Evaluation A (Pre-1980)) “no conclusion”; (Species/Cell Type: Neurospora crassa, Assay Type: Aneuploidy, chromosome aberrations, Assay Code: NEN-, Evaluation Type: Evaluation A (Pre-1980)) “inactive; negative”; (Species/Cell Type: Nonhuman, Assay Type: Sister-chromatid exchange (SCE) in vitro, Assay Code: SC2+, Evaluation Type: Evaluation B (Post-1980)) “active; positive”. Also, the mutagenic call by setting is: (Species/Cell Type: Nonhuman, Assay Type: Sister-chromatid exchange (SCE) in vitro, Assay Code: SC2-, Evaluation Type: Evaluation A (Pre-1980)) “inactive; negative”; (Species/Cell Type: Nonhuman, Assay Type: Sister-chromatid exchange (SCE) in vivo, Assay Code: SC3+, Evaluation Type: Evaluation B (Post-1980)) “active; positive”; (Species/Cell Type: Salmonella typhimurium (one or more of the five standard strains: TA98, TA100, TA1535, TA1537, and TA1538), Assay Type: Histidine reverse gene mutation, Ames assay, Assay Code: SAL-, Evaluation Type: Evaluation A (Pre-1980)) “inactive; negative”; (Species/Cell Type: Salmonella typhimurium, Assay Type: Forward and reverse gene mutation, body fluid assay, Assay Code: BFU-, Evaluation Type: Evaluation A (Pre-1980)) “inactive; negative”; (Species/Cell Type: Syrian hamster embryo (SHE) cells, Assay Type: Cell transformation, clonal assay, Assay Code: CTCT, Evaluation Type: Evaluation A (Pre-1980)) “no conclusion”; (Species/Cell Type: Tradescantia species, Assay Type: Gene mutation, Assay Code: TRM+D, Dose Response: With dose response, Evaluation Type: Evaluation A (Pre-1980)) “active; positive”. The call under setting [5] was “active; positive”.

Turning to `CCC(C)I` (centres undefined), under setting [1], the mutagenic call is “active; positive”.

As to `Nc1ccc2c(c1)C(=O)c1ccccc1C2=O`, the call under setting [5] was “active; positive”.

Regarding `COc1cc(NO)ccc1N=Nc1ccccc1`, the mutagenic call (Species/Cell Type: Salmonella typhimurium (one or more of the five standard strains: TA98, TA100, TA1535, TA1537, and TA1538), Assay Type: Histidine reverse gene mutation, Ames assay, Assay Code: SALT, Evaluation Type: Evaluation A (Pre-1980)) was “no conclusion”.

Turning to `Nc1cc(Cl)c(Cl)cc1N`, the mutagenic call (Species/Cell Type: Mammalian polychromatic erythrocytes, Assay Type: Micronucleus test, chromosome aberrations, Assay Code: MNTT, Evaluation Type: Evaluation B (Post-1980)) is on record as “no conclusion”.

Regarding `CCCCCCO`, the mutagenic call (Species/Cell Type: Nonhuman, Assay Type: Sister-chromatid exchange (SCE) in vivo, Assay Code: SC3T, Evaluation Type: Evaluation B (Post-1980)) is on record as “no conclusion”.
